Read-outs that look alike come from different tables or passages of the source.
What was measured:
[1] = cited from earlier work
[2] = cited from earlier work; remark: listed apart in the source
[3] = cited from earlier work; remark: listed apart in the source
[4] = cited from earlier work; remark: listed apart in the source
plasma protein = conditions: once in the circulation; cited from earlier work
[5] = behaviour of ketorolac tromethamine solutions outside pH 6.0-8.5; type: physicochemical
Source text: In the present invention, a stable and injectable pharmaceutical composition which contains an acetic acid class of NSAID is described. The pH value of the injectable pharmaceutical composition is maintained at 6.0-8.5, preferably 6.9-7.9. When the pH values of the ketorolac tromethamine solutions are lower than 6, the NSAID precipitates from the solutions.
(4). Measure the pH of the solution in (3). If the pH is below 6.0, add an appropriate amount of the alkaline agent as described in (A) of the above “pH-adjusting agent” to the solution. If the pH is above 8.5, add an appropriate amount of the acidic agent as described in (B) of the above “pH-adjusting agent” to the solution. Cloudiness is observed when the pH of the solution is below 6. The solution will become clear after the pH adjustment to between 6.0-8.5.

[6] = white to off-white crystalline substance; cited from earlier work

| Structure (SMILES) | terminal elimination half-life ([1]; geriatric patients) | terminal elimination half-life ([1]; young adults) | pKa [2] | water solubility [3] | onset of the anti-inflammatory, analgesic, and antipyretic effects ([4]; after the intramuscular administration) | time to maximum effect ([4]; after the intravenous or intramuscular administrations) | duration of therapeutic effects ([4]; in vivo) | plasma protein bound (plasma protein) | behaviour of solution ([5]; pH higher than 8.5) | behaviour of solution ([5]; pH lower than 6) | behaviour under prolonged exposure to light [6] | time at which serum concentration reaches a peak ([1]; route not given) |
| --- | --- | --- | --- | --- | --- | --- | --- | --- | --- | --- | --- | --- |
| NC(CO)(CO)CO.O=C(c1ccccc1)c1ccc2n1CCC2C(=O)O (stereo not shown) [ketorolac tromethamine] | 4.7 to 8.6 h | 3.8 to 6.3 h | 3.5 | enhanced | 30 to 60 min | 1 to 2 h | 4 to 6 h | 99% | color of the solutions changes | precipitates | discolors |  |
| O=C(c1ccccc1)c1ccc2n1CCC2C(=O)O (racemic) [ketorolac, (±)-5-benzoyl-2,3-dihydro-1H-pyrrolizine-1-carboxylic acid] |  |  |  | low |  |  |  |  |  |  |  | about 2.9±1.8 minutes |

Source: patent US20030191187A1, “Injectable pharmaceutical composition containing a non-steroidal anti-inflammatory drug and method for preparing the same” (priority 2002, published 2003)
